Laboratory results from patent US9771358B2, “Dihydropyrimidine compounds and their application in pharmaceuticals” (SUNSHINE LAKE PHARMA CO., LTD., priority 2014, dated 2017).

Tested on: HBV
Assay: In-vitro anti-HBV activity in stable HBV-producing cell line (HepG2.2.15), HBV DNA by qPCR
Type: cell-based
Conditions: Hepatitis B virus, 168 h; HepG2.2.15 cells, HBV DNA in culture fluid, day 7, top concentration 16.4 μM
Procedure: HBV DNA contents in cell culture fluid were detected by the qPCR-based assay and 50% effective concentration (EC50) values of the compounds against HBV were calculated. Specific procedures are as follows:
HepG2.2.15 cells were seeded into each well of 96-well plates, 40,000 cells per well. Cells were treated with cell culture medium containing compounds with different concentrations for 24 hours after cell seeding. The final concentration of each compound was 16.4 μM in each well and each compound was diluted to desired concentration using 3-fold gradient dilution protocol, 9 diluted points in duplicate. The culture mediums containing the compounds were refreshed on day 4 post cell seeding. Culture media were collected from the HepG2.2.15 plates on day 7 post cell seeding followed by HBV DNA extraction.
HBV DNA extraction: The HBV DNA extraction was performed using QIAamp 96 DNA Blood Kit (QIAGEN 51161).
PCR for quantification: PCR mix was prepared according to PCR system. PCR mix was dispensed to 96-well optical reaction plates (special for quantification). The standard diluted proportionally was added. Then the sample was added; The plates were sealed with optical adhesive film; PCR system was performed according to programs.
Percentage of HBV inhibition of DNA replication by compound was calculated using the following equation: % Inh.=[1-HBV DNA quantity of sample/HBV DNA quantity of DMSO control]×100.
Calculating EC50 value of compounds to HBV replication: the EC50 values were calculated based on “four-parameter logistic equation” and using GraphPad Prism 5 analysis software.

Structure (SMILES)	EC50 [nM]
COC(=O)C1=C(CN2CCO[C@H](CCC(=O)O)C2)NC(c2nccs2)=N[C@@H]1c1ccc(F)cc1Br [Example 41, 3-((R)-4-(((S)-6-(2-Bromo-4-fluorophenyl)-5-(methoxycarbonyl)-2-(thiazol-2-yl)-3,6-dihydropyrimidin-4-yl)methyl)morpholin-2-yl)propanoic acid]	> 12800
CCOC(=O)C1=C(CN2CCOCC2CCC(=O)O)NC(c2nccs2)=NC1c1ccc(F)cc1Br (racemic) [contrast 11, 3-(4-((6-(2-bromo-4-fluorophenyl)-5-(ethoxycarbonyl)-2-(thiazol-2-yl)-3,6-dihydropyrimidin-4-yl)methyl)morpholin-3-yl)propanoic acid, reference compound]	80
CCOC(=O)C1=C(CN2CCO[C@H](C(C)CC(=O)O)C2)NC(c2nccs2)=N[C@H]1c1ccc(F)cc1Br (stereo partly drawn) [Example 4, 3-((R)-4-(((R)-6-(2-Bromo-4-fluorophenyl)-5-(ethoxycarbonyl)-2-(thiazol-2-yl)-3,6-dihydropyrimidin-4-yl)methyl)morpholin-2-yl)butanoic acid]	116
CCOC(=O)C1=C(CN2CCO[C@@H](CCC(=O)O)C2)NC(c2nccs2)=N[C@H]1c1ccc(F)cc1Cl [Example 23, 3-((S)-4-(((R)-6-(2-Chloro-4-fluorophenyl)-5-(ethoxycarbonyl)-2-(thiazol-2-yl)-3,6-dihydropyrimidin-4-yl)methyl)morpholin-2-yl)propanoic acid]	110
CCOC(=O)C1=C(CN2CCO[C@@H](CCC(=O)O)C2)NC(c2nccs2)=N[C@@H]1c1ccc(Cl)cc1Cl [Example 44, 3-((S)-4-(((S)-6-(2,4-Dichlorophenyl)-5-(ethoxycarbonyl)-2-(thiazol-2-yl)-3,6-dihydropyrimidin-4-yl)methyl)morpholin-2-yl)propanoic acid]	> 14900
COC(=O)C1=C(CN2CCOC[C@@H]2CCC(=O)O)NC(c2nccs2)=N[C@H]1c1ccc(F)cc1Br [Example 16, 3-((S)-4-(((R)-6-(2-Bromo-4-fluorophenyl)-5-(methoxycarbonyl)-2-(thiazol-2-yl)-3,6-dihydropyrimidin-4-yl)methyl)morpholin-3-yl)propanoic acid]	9
CCOC(=O)C1=C(CN2CCO[C@H](CCC(=O)O)C2)NC(c2nccs2)=N[C@@H]1c1ccc(F)cc1Cl [Example 37, 3-((R)-4-(((S)-6-(2-Chloro-4-fluorophenyl)-5-(ethoxycarbonyl)-2-(thiazol-2-yl)-3,6-dihydropyrimidin-4-yl)methyl)morpholin-2-yl)propanoic acid]	> 16400
COC(=O)C1=C(CN2CCO[C@@H](CCC(=O)O)C2)NC(c2nccs2)=N[C@H]1c1ccc(Cl)cc1Cl [Example 26, 3-((S)-4-(((R)-6-(2,4-Dichlorophenyl)-5-(methoxycarbonyl)-2-(thiazol-2-yl)-3,6-dihydropyrimidin-4-yl)methyl)morpholin-2-yl)propanoic acid]	82
COC(=O)C1=C(CN2CCOCC2CCC(=O)O)NC(c2nccs2)=NC1c1ccc(F)cc1Br (racemic) [contrast 12, 3-(4-((6-(2-bromo-4-fluorophenyl)-5-(methoxycarbonyl)-2-(thiazol-2-yl)-3,6-dihydropyrimidin-4-yl)methyl)morpholin-3-yl)propanoic acid, reference compound]	75
CCOC(=O)C1=C(CN2CCO[C@H](CCC(=O)O)C2)NC(c2nccs2)=N[C@@H]1c1ccc(Cl)cc1Cl [Example 43, 3-((R)-4-(((S)-6-(2,4-Dichlorophenyl)-5-(ethoxycarbonyl)-2-(thiazol-2-yl)-3,6-dihydropyrimidin-4-yl)methyl)morpholin-2-yl)propanoic acid]	> 11700
COC(=O)C1=C(CN2CCOC[C@@H]2CCC(=O)O)NC(c2nccs2)=N[C@@H]1c1ccc(F)cc1Br [Example 50, 3-((S)-4-(((S)-6-(2-Bromo-4-fluorophenyl)-5-(methoxycarbonyl)-2-(thiazol-2-yl)-3,6-dihydropyrimidin-4-yl)methyl)morpholin-3-yl)propanoic acid]	> 10900
CCOC(=O)C1=C(CN2CCOC[C@@H]2CCC(=O)O)NC(c2nccs2)=N[C@@H]1c1ccc(F)cc1Br [Example 48, 3-((S)-4-(((S)-6-(2-Bromo-4-fluorophenyl)-5-(ethoxycarbonyl)-2-(thiazol-2-yl)-3,6-dihydropyrimidin-4-yl)methyl)morpholin-3-yl)propanoic acid]	> 10300
COC(=O)C1=C(CN2CCOC(CCC(=O)O)C2)NC(c2nccs2)=NC1c1ccc(F)cc1Cl (racemic) [contrast 3, 3-(4-((6-(2-chloro-4-fluorophenyl)-5-(methoxycarbonyl)-2-(thiazol-2-yl)-3,6-dihydropyrimidin-4-yl)methyl)morpholin-2-yl)propanoic acid, reference compound]	290
CCOC(=O)C1=C(CN2CCOC[C@H]2CCC(=O)O)NC(c2nccs2)=N[C@H]1c1ccc(F)cc1Br [Example 8, 3-((R)-4-(((R)-6-(2-Bromo-4-fluorophenyl)-5-(ethoxycarbonyl)-2-(thiazol-2-yl)-3,6-dihydropyrimidin-4-yl)methy)morpholin-3-yl)propanoic acid]	25
COC(=O)C1=C(CN2CCOC(CCC(=O)O)C2)NC(c2nccs2)=NC1c1ccc(Cl)cc1Cl (racemic) [contrast 6, 3-(4-((6-(2,4-dichlorophenyl)-5-(methoxycarbonyl)-2-(thiazol-2-yl)-3,6-dihydropyrimidin-4-yl)methyl)morpholin-2-yl)propanoic acid, reference compound]	210
COC(=O)C1=C(CN2CCO[C@H](CCC(=O)O)C2)NC(c2nccs2)=N[C@@H]1c1ccc(Cl)cc1Cl [Example 45, 3-((R)-4-(((S)-6-(2,4-dichlorophenyl)-5-(methoxycarbonyl)-2-(thiazol-2-yl)-3,6-dihydropyrimidin-4-yl)methyl)morpholin-2-yl)propanoic acid]	> 11300
CCOC(=O)C1=C(CN2CCO[C@@H](CCC(=O)O)C2)NC(c2nccs2)=N[C@@H]1c1ccc(F)cc1Cl [Example 38, 3-((S)-4-(((S)-6-(2-Chloro-4-fluorophenyl)-5-(ethoxycarbonyl)-2-(thiazol-2-yl)-3,6-dihydropyrimidin-4-yl)methyl)morpholin-2-yl)propanoic acid]	> 16400
COC(=O)C1=C(CN2CCOC[C@@H]2CCC(=O)O)NC(c2nccs2)=N[C@H]1c1ccc(F)cc1Cl [Example 18, 3-((S)-4-(((R)-6-(2-Chloro-4-fluorophenyl)-5-(methoxycarbonyl)-2-(thiazol-2-yl)-3,6-dihydropyrimidin-4-yl)methyl)morpholin-3-yl)propanoic acid]	10
CCOC(=O)C1=C(CN2CCOC[C@@H]2CCC(=O)O)NC(c2nccs2)=N[C@H]1c1ccc(Cl)cc1Cl [Example 19, 3-((S)-4-(((R)-6-(2,4-Dichlorophenyl)-5-(ethoxycarbonyl)-2-(thiazol-2-yl)-3,6-dihydropyrimidin-4-yl)methyl)morpholin-3-yl)propanoic acid]	6
COC(=O)C1=C(CN2CCOC[C@H]2CCC(=O)O)NC(c2nccs2)=N[C@H]1c1ccc(F)cc1Br [Example 14, 3-((R)-4-(((R)-6-(2-Bromo-4-fluorophenyl)-5-(methoxycarbonyl)-2-(thiazol-2-yl)-3,6-dihydropyrimidin-4-yl)methyl)morpholin-3-yl)propanoic acid]	140
CCOC(=O)C1=C(CN2CCOCC2CCC(=O)O)NC(c2nccs2)=NC1c1ccc(F)cc1Cl (racemic) [contrast 7, 3-(4-((6-(2-chloro-4-fluorophenyl)-5-(ethoxycarbonyl)-2-(thiazol-2-yl)-3,6-dihydropyrimidin-4-yl)methyl)morpholin-3-yl)propanoic acid, reference compound]	92
COC(=O)C1=C(CN2CCO[C@@H](CCC(=O)O)C2)NC(c2nccs2)=N[C@H]1c1ccc(F)cc1Cl [Example 24, 3-((S)-4-(((R)-6-(2-Chloro-4-fluorophenyl)-5-(methoxycarbonyl)-2-(thiazol-2-yl)-3,6-dihydropyrimidin-4-yl)methyl)morpholin-2-yl)propanoic acid]	107
CCOC(=O)C1=C(CN2CCOC[C@@H]2CCC(=O)O)NC(c2nccs2)=N[C@H]1c1ccc(F)cc1Cl [Example 17, 3-((S)-4-(((R)-6-(2-Chloro-4-fluorophenyl)-5-(ethoxycarbonyl)-2-(thiazol-2-yl)-3,6-dihydropyrimidin-4-yl)methyl)morpholin-3-yl)propanoic acid]	12
CCOC(=O)C1=C(CN2CCOC(CCC(=O)O)C2)NC(c2nccs2)=NC1c1ccc(Cl)cc1Cl (racemic) [contrast 5, 3-(4-((6-(2,4-dichlorophenyl)-5-(ethoxycarbonyl)-2-(thiazol-2-yl)-3,6-dihydropyrimidin-4-yl)methyl)morpholin-2-yl)propanoic acid, reference compound]	230

Same assay, conditions: Hepatitis B virus, HepG2.2.15; isomers of compound of formular (II)

Structure (SMILES)	EC50 [nM]
CCOC(=O)C1=C(CN2CCO[C@@H](CCC(=O)O)C2)NC(c2nccs2)=N[C@H]1c1ccc(F)cc1Cl [Example 23, 3-((S)-4-(((R)-6-(2-Chloro-4-fluorophenyl)-5-(ethoxycarbonyl)-2-(thiazol-2-yl)-3,6-dihydropyrimidin-4-yl)methyl)morpholin-2-yl)propanoic acid]	110
CCOC(=O)C1=C(CN2CCO[C@@H](CCC(=O)O)C2)NC(c2nccs2)=N[C@@H]1c1ccc(F)cc1Cl [Example M4]	> 16400
CCOC(=O)C1=C(CN2CCO[C@H](CCC(=O)O)C2)NC(c2nccs2)=N[C@@H]1c1ccc(F)cc1Cl [Example M3]	> 16400
